Measured values as given in ChEMBL document CHEMBL1201862, “PubChem BioAssay data set” (2004).
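Cells were grown in 96-well plates and exposed to each compound for 48 hours at five concentrations; endpoints were interpolated linearly between bracketing concentrations, or set to the highest concentration if not reached. GI50 = concentration required for 50% inhibition of growth.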 The source made the active and inactive calls. Rule as the data show it: active = GI50 up to about 1.1 µM and inactive = higher.

How the values were obtained:
Assay in all cases: inhibition of tumour cell growth, NCI panel, 48 h
[1] = test system: NCI-H460
[2] = test system: SN12C
[3] = test system: RXF 393
[4] = test system: UO-31
[5] = test system: RPMI-8226
[6] = test system: HCC 2998
[7] = test system: HOP-92
[8] = test system: SNB-19
[9] = test system: MOLT-4
[10] = test system: A498
[11] = test system: SF-539
[12] = test system: OVCAR-8
[13] = test system: SW-620
[14] = test system: HCT-116
[15] = test system: HL-60
[16] = test system: SK-OV-3
[17] = test system: DU-145
[18] = test system: K562
[19] = test system: MCF7
[20] = test system: IGROV-1

Measured: GI50

O=C(NCCc1ccc(F)cc1)c1cc(/C=C/c2cc(O)ccc2O)ccc1O
inactive: [1] 9.75 µM | [2] 5.51 µM | [3] 2.03 µM | [4] 1.66 µM | [5] 3.01 µM | [6] 7.23 µM | [7] 1.85 µM | [8] 5.45 µM | [9] 2.48 µM | [10] 4.06 µM | [11] 2.36 µM | [12] 3.29 µM | [13] 7.64 µM | [14] 1.95 µM | [15] 2.38 µM | [16] 13 µM | [17] 10.3 µM | [18] 3.03 µM | [19] 2.45 µM | [20] 2.31 µM

CC(CO)CCC(O)C(C)(O)C1CCC2(O)C3=CC(=O)C4CC(O)C(O)CC4(C)C3CCC12C (stereo not given)
inactive: [1] > 100 µM | [2] > 100 µM | [3] > 100 µM | [4] > 100 µM | [5] > 100 µM | [6] > 100 µM | [7] > 100 µM | [8] > 100 µM | [9] > 100 µM | [10] > 100 µM | [11] > 100 µM | [12] > 100 µM | [13] > 100 µM | [14] > 100 µM | [15] > 100 µM | [16] > 100 µM | [17] > 100 µM | [18] > 100 µM | [19] > 100 µM

CC(=O)O[C@H]1C[C@](C)(O)[C@@]23CC([C@@H](OC(=O)C(C)(C)O)[C@@H](OC(C)=O)C2(COC(=O)c2ccccc2)[C@H]1OC(C)=O)C(C)(C)O3 (stereo not given in full)
inactive: [1] > 100 µM | [2] > 100 µM | [3] > 100 µM | [4] > 100 µM | [5] 23.6 µM | [6] > 100 µM | [7] 60.3 µM | [8] > 100 µM | [9] 31.4 µM | [10] > 100 µM | [11] > 100 µM | [12] > 100 µM | [13] > 100 µM | [14] > 100 µM | [16] > 100 µM | [17] > 100 µM | [18] 50 µM | [19] 50.9 µM | [20] > 100 µM

CC(=O)Oc1c2ccsc2c(OC(C)=O)c2ccsc12
inactive: [1] 1.81 µM | [4] 1.33 µM | [5] 6.56 µM | [6] 1.8 µM | [8] 1.47 µM | [10] 1.77 µM | [16] 2.86 µM | [20] 1.79 µM
active: [2] 0.714 µM | [3] 0.0172 µM | [7] 0.577 µM | [9] 0.955 µM | [11] 0.294 µM | [12] 0.337 µM | [13] 1.08 µM | [14] 0.764 µM | [15] 0.647 µM | [17] 0.412 µM | [19] 0.667 µM

CN1C(=O)C(O)CC1c1ccccc1C(F)(F)F (stereo not given)
inactive: [1] > 100 µM | [2] > 100 µM | [3] > 100 µM | [4] > 100 µM | [5] > 100 µM | [6] > 100 µM | [7] > 100 µM | [8] > 100 µM | [9] > 100 µM | [10] > 100 µM | [11] > 100 µM | [12] > 100 µM | [13] > 100 µM | [14] > 100 µM | [15] > 100 µM | [16] > 100 µM | [17] > 100 µM | [19] > 100 µM | [20] > 100 µM

Clc1cccc(/N=C/C=C/Nc2cccc(Cl)c2)c1
inactive: [1] 17.7 µM | [2] 14 µM | [3] 20.8 µM | [4] 16 µM | [5] 27.2 µM | [6] 11.9 µM | [7] 42.5 µM | [8] > 10 µM | [9] 22.2 µM | [10] 22.9 µM | [11] 17.2 µM | [12] 18 µM | [13] 22.9 µM | [14] 15 µM | [15] 18.9 µM | [17] 29 µM | [19] 18.8 µM | [20] 16 µM

COc1cccc(C(=O)C(O)c2cccc(OC)c2OC)c1OC (stereo not given)
inactive: [1] > 100 µM | [2] > 100 µM | [3] > 100 µM | [4] > 100 µM | [5] > 100 µM | [6] > 100 µM | [7] > 100 µM | [8] > 100 µM | [9] > 100 µM | [10] > 100 µM | [11] > 100 µM | [12] > 100 µM | [13] > 100 µM | [14] > 100 µM | [15] > 100 µM | [16] > 100 µM | [17] > 100 µM | [19] > 100 µM | [20] > 100 µM

CC(C)(C)OC(=O)[C@H]1CCC(=S)N1Cc1ccccc1
inactive: [1] > 100 µM | [2] > 100 µM | [3] > 100 µM | [4] > 100 µM | [5] > 100 µM | [6] > 100 µM | [7] > 100 µM | [8] > 100 µM | [9] > 100 µM | [10] > 100 µM | [11] > 100 µM | [12] > 100 µM | [13] > 100 µM | [14] > 100 µM | [15] > 100 µM | [16] > 100 µM | [17] > 100 µM | [19] > 100 µM | [20] > 100 µM

O=C1CC(O)c2c(Cl)sc(Cl)c21 (stereo not given)
inactive: [1] 22.8 µM | [2] 11.3 µM | [3] 3.68 µM | [4] 6.49 µM | [5] 7.19 µM | [6] 27.2 µM | [7] 3.11 µM | [8] 21.7 µM | [9] 2.81 µM | [10] 22.1 µM | [11] 9.04 µM | [12] 4.07 µM | [13] 3.13 µM | [14] 3.83 µM | [16] 22.5 µM | [17] 12.9 µM | [18] 3.37 µM | [19] 5.45 µM | [20] 8.13 µM

Nc1nc(F)nc2c1ncn2C1OC(CO)C(O)C1O (stereo not given)
inactive: [1] 73.1 µM | [2] 3.89 µM | [3] > 81.8 µM | [4] 11.1 µM | [5] > 100 µM | [6] 49.3 µM | [7] 8.79 µM | [8] 19.2 µM | [9] 1.14 µM | [10] > 60.3 µM | [11] > 100 µM | [12] 4.61 µM | [13] 69 µM | [14] 39.5 µM | [15] 42.5 µM | [16] 23.2 µM | [17] 15.7 µM | [18] > 76.6 µM | [19] 57.7 µM | [20] > 100 µM

Brc1ccc2nc(-c3cccs3)nc(N3CCN(c4ccccc4)CC3)c2c1
inactive: [1] > 100 µM | [2] > 100 µM | [4] > 100 µM | [5] > 100 µM | [6] > 100 µM | [7] > 100 µM | [8] > 100 µM | [10] > 100 µM | [11] > 100 µM | [12] > 100 µM | [13] > 100 µM | [14] > 100 µM | [15] > 100 µM | [16] > 100 µM | [17] > 100 µM | [18] > 100 µM | [19] > 100 µM | [20] > 100 µM

CO[C@H]1O[C@@H]2CO[C@@H](c3ccccc3)O[C@H]2C[C@]12CCC/C=C\CO2
inactive: [1] 47.4 µM | [2] 14.8 µM | [3] 13.9 µM | [4] 14.3 µM | [6] 18.7 µM | [7] 13.5 µM | [8] 22.8 µM | [9] 12.9 µM | [10] 14 µM | [11] 14.6 µM | [12] 12.1 µM | [13] 20.6 µM | [14] 12.7 µM | [15] 15.9 µM | [16] 37.7 µM | [17] 33.5 µM | [18] 13.9 µM | [19] 15.2 µM

Cc1cc(=O)oc2cc(OC(=O)N(C)C)c(Cl)cc12
inactive: [1] > 100 µM | [2] > 100 µM | [3] 2 µM | [4] > 100 µM | [5] > 100 µM | [6] > 100 µM | [7] 82 µM | [8] 71.4 µM | [9] > 100 µM | [10] > 100 µM | [11] 55.3 µM | [12] > 100 µM | [13] > 100 µM | [14] > 100 µM | [15] 54 µM | [17] > 100 µM | [18] > 100 µM | [19] > 100 µM | [20] > 100 µM

COc1cc(C2c3cc4c(c(O)c3C(=O)C3CCC(=O)N32)OCO4)cc(OC)c1OC (stereo not given)
inactive: [1] 52.6 µM | [2] > 100 µM | [4] 26.7 µM | [5] 92.7 µM | [6] 32 µM | [7] 34.4 µM | [8] > 100 µM | [9] 37.9 µM | [10] 39.9 µM | [11] 46.9 µM | [12] > 100 µM | [13] 45.9 µM | [14] 56.4 µM | [15] 45 µM | [16] 46 µM | [17] > 100 µM | [18] 34.9 µM | [19] 77.1 µM | [20] 61.9 µM
